Experiments:
Assay type in all cases: cell-based
ERK MAPK = ERK MAPK phosphorylation during oxygen-glucose deprivation (OGD) in rat cortical neuron cultures; settings: rat cortical neurons
Procedure: (§1) Equal protein from total cell lysates obtained from rat and mice neuronal cultures were resolved in 7.5% SDS-PAGE, and subjected to immunoblotting procedure as described earlier (Podder and Paul, 2009, J Neurochem 110:1095-1106). Blots were analyzed with antibodies as described in each experiment. All primary antibodies (anti-pERK, anti-ERK) and secondary-horse radish peroxidase conjugated antibody concentrations were used according to recommendations provided by the manufacturer. Signals from immune complexes in the blots were developed using West Pico supersignal chemiluminescence reagents and then captured on X-ray films. Densitometric analysis of the images was performed using the Image J software.
At specified time periods (one hour, two hours, and three hours) during OGD alone or OGD in the presence of L-Hcy (50 μM), cells were removed from the chamber and lysed for immunoblot analysis. Some cultures were treated with L-Hcy (three hours) during the OGD insult in the presence or absence of NVP-AAM077 (30 nM; 3 h). […] Cells were then subjected to staining with Hoechst 33342 dye for 15 minutes, washed extensively with PBS, and analyzed using fluorescent microscopy to assess nuclear damage. To quantitatively assess the percentage of pyknotic nuclei, a total of 1000 cells were counted for each set of experiments (Poddar et al., 2010, J Neurochem 115, 1350-1362).

[1] = test system: rat cortical neuronal cultures; test: Neuronal cell death by Hoechst DNA staining, rat cortical neuron cultures
Procedure: Neurons were subjected to staining with Hoechst 33342 dye for 15 minutes, washed extensively with PBS, and analyzed using fluorescent microscopy to assess nuclear damage. Imaging was performed with a Zeiss Axiovert 200M fluorescence microscope with attached AxioCam CCD camera using 20× objective lens (Carl Zeiss, Thomwood, N.Y.). To quantitatively assess the percentage of pyknotic nuclei a total of 1000 cells were counted for each set of experiments. Mean±SEM (n=3) were used for statistical comparison using ANOVA (Bonferroni's multiple comparison test). Differences were considered significant when p<0.05.
[…] Glutamate treated cells were then maintained in their original medium for another 17 hours. For some experiments, neurons were treated with L-homocysteine or glutamate in the presence of NVP-AAM077 or PD98059. The neurons were then fixed and stained with Hoechst 33342 dye as previously described (Poddar and Paul, 2009, J Neurochem 110:1095-1106). Percentage of pyknotic nuclei was quantitatively assessed by fluorescent microscopy to determine the extent of neuronal death.

cPLA2 = cPLA2 activity in rat neuronal lysates (enzymatic assay); settings: for effect on homocysteine-mediated increase in cPLA2 activity: rat neurons, L-homocysteine 50 μM four hours, with MK801 10 μM, NVP-AAM077 30 nM, Ro 25-6981 1 μM, PD98059 15 μM or SB203580 5 μM
Procedure: (§2) Neuron cultures were treated with or without L-homocysteine in the presence or absence of pharmacological inhibitors for the time period specified in each experiment. The medium was collected from each experimental plate and centrifuged at 1000 rpm for five minutes to remove cellular debris. Equal amounts (100 μl) of the supernatant from each sample were used to determine the amount of PGE2 using the PGE2 enzyme immunoassay kit according to the manufacturer's instructions. For measurement of cPLA2 activity, the neuronal cells from the above treated conditions were harvested in ice-cold Tris-buffered saline (pH7.4) containing sodium pyrophosphate as phosphatase inhibitor, sonicated three times with five-second bursts and two minutes on ice between intervals. The lysed cell suspensions were centrifuged at 10,000 rpm for 10 minutes and the supernatant removed. Equal amounts of protein from the supernatant (assessed using BCA protein estimation kit) were estimated for activity of cPLA2 using cPLA2 activity assay kit according to the manufacturer's protocol.
For measurement of cPLA2 activity and MCP-1 levels in cell lysates, neuronal lysates were prepared by harvesting neurons in ice-cold Tris-buffered saline (pH 7.4) containing phosphatase inhibitor, sonicated three times in five-second bursts and placed on ice (two minutes) between each burst of sonication. The lysed cell suspensions were centrifuged at 10,000 rpm (10 minutes) and the supernatant was collected in another tube. Equal amounts of protein from the supernatant were processed for cPLA2 activity assay according to the manufacturer's protocol. Equal protein from the lysates were also used to estimate MCP-1 levels using an MCP-1 ELISA kit.

COX2 = COX2 protein level in rat neuronal cultures (immunoblot); settings: for effect on homocysteine-induced increase in COX2 protein level: rat neurons, L-homocysteine 50 μM four hours, with MK801 10 μM, NVP-AAM077 30 nM, Ro 25-6981 1 μM, PD98059 15 μM, SB203580 5 μM or Bengamide B 500 nM
Procedure: as §1, with “(Poddar” for “(Podder”, “(anti-COX2, anti-B-tubulin)” for “(anti-pERK, anti-ERK)”
Rat and mice neuronal cultures were washed with PBS (pH 7.4), containing sodium pyrophosphate and sodium vanadate as phosphatase inhibitors, and harvested in SDS sample buffer (Laemmli, 1970, Nature 227:680-685). Equal protein from total cell lysates, estimated using BCA kit, was resolved by SDS-PAGE (7.5%) followed by western blotting on PVDF membranes. Immunoblot analysis was performed by first blocking with 5% non-fat dry milk for 1 h at room temperature followed by incubation with either COX2 immunoblot analysis (Poddar and Paul, 2009, J Neurochem 110:1095-1106) as described in each experiment. All primary antibodies and horseradish peroxidase conjugated secondary antibodies were used according to manufacturer's recommendations. Signals from immune complexes in the blots were developed using West Pico supersignal chemiluminescence reagents and then captured on X-ray films. Densitometric analysis of the images was performed using the NIH Image J software.

PGE2 = PGE2 release from rat neuronal cultures (enzyme immunoassay / ELISA of culture media); settings: for effect on homocysteine-induced PGE2 release: rat neurons, L-homocysteine 50 μM four hours, with DL-AP5 200 μM, MK801 10 μM, NVP-AAM077 30 nM, Ro 25-6981 1 μM, PD98059 15 μM, SB203580 5 μM, Bengamide B 500 nM or CAY10404 100 nM
Procedure: as §2
For measurement of PGE2 levels and MCP-1 levels released from neurons, culture medium was collected from each experimental plate and centrifuged at 1000 rpm for five minutes to remove cellular debris. Equal volume (100 μl) of the supernatant from each sample was used to determine PGE2 level using the PGE2 ELISA kit according to the manufacturer's instructions.

[2] = cortical neurons, L-homocysteine 50 μM, time course, alone

Row | Compound | ERK MAPK phosphorylation during OGD (ERK MAPK; OGD in the presence of L-Hcy 50 μM, time course up to three hours) | number of apoptotic cells (pyknotic nuclei) ([1]; rat cortical neurons, L-homocysteine 50 μM, 24 hours, alone vs untreated controls) | cell death (pyknotic nuclei) ([1]; rat neurons, L-homocysteine 50 μM, 18 h, alone) | cPLA2 activity (cPLA2; primary cortical neurons, L-homocysteine 50 μM, 0-6 hours, alone) | COX2 protein levels (COX2; [2]) | PGE2 levels released into the medium (PGE2; [2]) | effect on ERK MAPK activation by OGD plus L-homocysteine (ERK MAPK; OGD and L-Hcy 50 μM three hours, NVP-AAM077 30 nM) | effect on homocysteine-induced apoptotic cells ([1]; rat cortical neurons, L-homocysteine 50 μM 24 hours, NVP-AAM077 30 nM) | effect on homocysteine-induced neuronal death ([1]; rat neurons, L-homocysteine 50 μM 18 hours, with NVP-AAM077 30 nM or PD98059 15 μM) | effect on homocysteine-mediated increase in cPLA2 activity (cPLA2) | effect on homocysteine-induced increase in COX2 protein level (COX2) | effect on homocysteine-induced PGE2 release (PGE2)
1 | N[C@@H](CCS)C(=O)O [L-homocysteine] | causes sustained ERK MAPK phosphorylation | significant increase in the number of apoptotic cells | significant increase in cell death | significantly increases cPLA2 activity with time | progressive increase in COX2 protein levels | significant increase in PGE2 levels within two hours |  |  |  |  |  | 
2 | C[C@H](NC(c1cccc2[nH]c(=O)c(=O)[nH]c12)P(=O)(O)O)c1ccc(Br)cc1 (stereo partly drawn) [NVP-AAM077, ({[(1S)-1-(4-bromophenyl)ethyl]amino}-(2,3-dioxo-1,4-dihydroquinoxalin-5-yl)methyl)phosphonic acid] |  |  |  |  |  |  | inhibits the activation of ERK MAPK | significantly reduced the number of apoptotic cells | Significantly Reduces Homocysteine-Induced Neuronal Death | inhibits homocysteine-mediated increase in cPLA2 activity | blocks homocysteine-induced increase in COX2 protein expression | significantly reduced
3 | C[C@@H](CN1CCC(Cc2ccccc2)CC1)[C@@H](O)c1ccc(O)cc1 [Ro 25-6981] |  |  |  |  |  |  |  |  |  | fails to attenuate homocysteine-mediated increase in cPLA2 activity | fails to ameliorate homocysteine-induced increase in COX2 protein level | fails to alter homocysteine-induced increase in PGE2 level
